Reference: patent US8648045B2, “VDAC1 compositions and methods of use thereof for regulating apoptosis” (Ben Gurion University of the Negev Research and Development …, priority 2005, dated 2014)
Where two headings read alike, the source gives them in different places. Peptide text beside a SMILES is read from it.

Columns and labels:
[1] = system: B-16; test: Apoptosis induction by various stimuli (acridine orange/ethidium bromide staining); type: cell-based, mouse
Procedure: (§1) Cells were plated at a density of 5.4×10^4 cells/cm^2 in 24-well plates, washed once with PBS and placed in serum-free medium. Cells were then incubated with or without RuR or Ru360. Cells were also treated with […] staurosporine (STS) to induce apoptosis and analyzed for viability 3, 5 and 7 hrs after STS addition. Treatments with curcumin (120 μM) or As2O3 (20 μM) were carried out for 48 hrs.
(§2) To determine cell viability, cells were stained with 100 μg/ml acridine orange (AcOr) and 100 μg/ml ethidium bromide (EtBr) in PBS. Cells were centrifuged at 1500×g for 5 min at room temperature and resuspended in 25 μl of complete medium, to which 2 μl of AcOr/EtBr solution were added. The cells were then visualized by fluorescence microscopy (Olympus IX51) and images were recorded on an Olympus DP70 camera, using a SWB filter.
(§3) Cells were incubated with curcumin (120 μM) or As2O3 (20 μM) for 48 hrs, or with STS (1.25 μM) for 7 hrs. Cell viability was analyzed by acridine orange/ethidium Bromide staining. In each independent experiment, approximately 250 cells were counted for each treatment, in which early and late apoptotic cells were also counted. The data shown in table 3 is the mean±S.E.M. (n=3).

[2] = system: Du-145; test: as above; type: cell-based, human
Procedure: as §1, §2, §3

[3] = system: Panc; test: as above; type: cell-based, human
Procedure: as §1, §2, §3

[4] = system: HeLa; test: as above; type: cell-based, human
Procedure: as §1, §2, §3

[5] = system: PBMCs isolated from CLL patients; type: cell-based, human
Procedure: Peripheral blood mononuclear cells (PBMCs) were isolated from venous blood of patients with chronic lymphocytic leukemia (CLL) by Ficoll-Paque PLUS (GE Healthcare, Israel) density gradient centrifugation. After informed consent, venous blood (10 ml) was drawn from CLL patients satisfying diagnostic criteria for CLL or from normal adult donors. Blood was collected into heparin tubes and diluted 1:1 with balance solution (composed of two stock solutions, A and B, in 1:9 ratio, respectively. Solution A contained: D-glucose 1%, CaCl2 5×10^−5M, MgCl2 9.8×10^−4M, KCl 5.4×10^−3M, Tris 0.145M, pH 7.6. Solution B contained NaCl 0.14M. The balance solution was prepared freshly every week. The diluted blood sample was subsequently carefully layered on Ficoll-Paque Plus (10 ml of diluted blood: 15 ml Ficoll) in 50 ml conical tubes. Tubes were centrifuged at 400×g (with minimal acceleration and deceleration) for 40 minutes at 18-20° C. The mononuclear cells fine layer was transferred to a new centrifuge tube. Cells were washed 3 times with balance solution and re-suspended in a culture medium appropriate to the application.
(§4) PBMCs (2×10^6 cells/sample) from CLL patients and healthy donors were treated with various concentrations of the peptide Antp-LP4-trp for 90 minutes. Cells were then gently washed once with PBS and stained with propidium iodide (PI) by adding 2.5 μl (1 mg/ml) and immediately analyzed for cell death. The level of cell death, reflected by the percentage of PI-positive cells, was determined by a flow cytometry analysis.
(§5) Preipheral blood mononuclear cells (PMBC) isolated from pateints having chronic lymphocytic leukemia (CLL) and MEC-1 cell lines (human chronic B-cell leukemia) were incubated for 90 min with Peptide N-ANTP (SEQ ID NO:73) at concentrations of 10-40 μM. Cell death was measured by PI staning and FACS analysis.
In ex vivo experiments, peripheral blood mononuclear cells (PBMCs) isolated from healthy individuals or CLL patients were incubated for 90 min with the indicated concentration of the ANTP-LP4-trp peptide. Cell death was assayed by PI staining and FACS analysis (healthy donors, n=34; CLL donors, n=39).

[6] = system: MEC-1 cell line; type: cell-based, human
Procedure: as §4, §5

[7] = system: U937 cells; test: HK-I over-expression protection against apoptotic cell death in double-transfected cells; type: cell-based, human; settings: U937 or T-Rex 293 cells stably over-expressing HK-I, mVDAC1-GFP constructs
Procedure: U937 cells were transfected with pcDNA3.1-HisA or pcDNA3.1-HisA-HK-I (neomycin resistance; provided by Dr. J. E. Wilson, University of Michigan) by electroporation, and grown in complete RPMI 1640 with neomycin ([…]). After 12 days, the selected cells were transfected with pEGFP, pEGFP-mVDAC1 or pEGFP-E72Q-mVDAC1 and were grown in the presence of neomycin ([…]). The viability of double-transfected cells was analyzed during 48 to 76 hr.
The effect of HK-I over-expression on apoptotic cell death of the GFP-tagged version of native and E72Q-mVDAC1 over-expressing cells was examined.
Since VDAC1 overexpression induces cell death, U937 cells (FIG. 4A, 4B) or T-Rex™ 293 human embryonic kidney cells (FIG. 4B) were first transformed to stably over-express HK-I and then transfected with native, E65Q, E72Q, K73L, D77N, N75A, or G67A mutated mVDAC1-GFP. […] This β-loop includes amino acid residues T64 to about N78.

[8] = system: U937 cells; test: Apoptotic cell death of U937 cells transfected with native or mutated mVDAC1, with/without RuR (acridine orange/ethidium bromide staining); type: cell-based, human
Procedure: Logarithmically-growing U937 cells were resuspended in RPMI 1640 supplemented with 10% FCS, 100 U/ml penicillin and […] streptomycin at a concentration of 2.5×10^7 cells/ml. Cells were transfected to express rat or murine VDAC1 using the vectors pEGFP, pEGFP-VDAC1, pEGFP-E72Q-mVDAC1, pE-mVDAC1 or pE-E72Q-mVDAC1. Transfection of the U937 cells was performed by electroporation with a single pulse from a Bio-Rad micropulser II with a capacitance extender unit (200 V, […]). Cells were incubated on ice for 10 min before and after transfection, and then resuspended in 20 ml of RPMI 1640 supplemented with 10% FCS, 1 mM l-glutamine, 100 U/ml penicillin and […] streptomycin. […] GFP-positive cells were viewed under a microscope using a blue filter.
as §1
Fifty six (56) hr after transfection, cells were exposed for 20 hr to RuR (1 μM) and cell viability was analyzed using acridine orange/ethidium bromide staining. In each independent experiment, approximately 250 cells were counted for each including early and late apoptotic cells. Data shown in FIG. 5 and Table 2 are the mean±SEM (n=3).

## O=[As]O[As]=O (centres unmarked) [As2O3]
[1]; As2O3 20 μM, 48 hrs
  Apoptotic cell death, % of control: 15.0 ± 1.99 % of control
[2]; As2O3 20 μM, 48 hrs
  Apoptotic cell death, % of control: 6.0 ± 0.80 % of control
[3]; As2O3 20 μM, 48 hrs
  Apoptotic cell death, % of control: 67.20 ± 3.87 % of control
[4]; As2O3 20 μM, 48 hrs
  Apoptotic cell death, % of control: 24.67 ± 2.65 % of control

## COc1cc(/C=C/C(=O)CC(=O)/C=C/c2ccc(O)c(OC)c2)ccc1O [Curcumin, curcumin]
[1]; curcumin 120 μM, 48 hrs
  Apoptotic cell death, % of control: 37.47 ± 2.20 % of control
[2]; curcumin 120 μM, 48 hrs
  Apoptotic cell death, % of control: 8.93 ± 0.47 % of control
[3]; curcumin 120 μM, 48 hrs
  Apoptotic cell death, % of control: 70.77 ± 4.31 % of control
[4]; curcumin 120 μM, 48 hrs
  Apoptotic cell death, % of control: 36.2 ± 0.70 % of control

## CN[C@@H]1C[C@H]2O[C@@](C)([C@@H]1OC)n1c3ccccc3c3c4c(c5c6ccccc6n2c5c31)C(=O)NC4 [STS, staurosporine]
[1]; STS 1.25 μM, 7 hrs
  Apoptotic cell death, % of control: 63.12 ± 0.71 % of control
[2]; STS 1.25 μM, 7 hrs
  Apoptotic cell death, % of control: 13.57 ± 4.73 % of control
[3]; STS 1.25 μM, 7 hrs
  Apoptotic cell death, % of control: 84.90 ± 2.06 % of control
[4]; STS 1.25 μM, 7 hrs
  Apoptotic cell death, % of control: 72.37 ± 1.30 % of control

## CC(C)C[C@H](NC(=O)[C@H](CC(N)=O)NC(=O)[C@@H](NC(=O)[C@H](C)NC(=O)[C@@H](NC(=O)[C@H](CCC(=O)O)NC(=O)[C@H](CC(C)C)NC(=O)[C@H](CCCCN)NC(=O)[C@H](CCCCN)NC(=O)[C@H](CCC(=O)O)NC(=O)[C@H](Cc1c[nH]c2ccccc12)NC(=O)[C@@H](NC(=O)[C@H](Cc1c[nH]c2ccccc12)NC(=O)[C@H](CO)NC(=O)CNC(=O)CNC(=O)[C@H](CCCNC(=N)N)NC(=O)[C@H](CCCNC(=N)N)NC(=O)[C@H](CCCNC(=N)N)NC(=O)[C@H](CCC(N)=O)NC(=O)[C@H](CCCNC(=N)N)NC(=O)[C@H](CCCNC(=N)N)NC(=O)[C@H](CCCCN)NC(=O)[C@H](CCCCN)NC(=O)[C@@H](N)CCCNC(=N)N)[C@@H](C)O)[C@@H](C)O)C(C)C)C(=O)N[C@@H](C)C(=O)N[C@@H](Cc1c[nH]c2ccccc12)C(=O)N[C@H](C(=O)N[C@@H](C)C(=O)NCC(=O)N[C@@H](CC(N)=O)C(=O)N[C@@H](CO)C(=O)N[C@@H](CC(N)=O)C(=O)N[C@@H](CCCCN)C(=O)N[C@@H](Cc1c[nH]c2ccccc12)C(=O)N[C@H](C(=O)N[C@@H](Cc1c[nH]c2ccccc12)C(=O)N[C@@H](CCCCN)C(=O)O)[C@@H](C)O)[C@@H](C)O [TAT-LP4-trp] (H-RKKRRQRRRGGSWTWEKKLETAVNLAWTAGNSNKWTWK-OH; N-terminus and C-terminus assumed)
[5]; peptide concentration required to induce apoptosis in 50% of the cells, PBMC from CLL patients, read-out: IC50 μM CLL
  IC50: 3.5 to 4 µM
[6]; peptide concentration required to induce apoptosis in 50% of the cells, MEC-1, read-out: IC50 μM MEC-1
  IC50: 6 to 7 µM

## CC[C@H](C)[C@H](NC(=O)[C@H](C)NC(=O)[C@@H](N)Cc1c[nH]cn1)C(=O)N[C@@H](Cc1ccc(O)cc1)C(=O)N1CCC[C@H]1C(=O)N[C@@H](CCCNC(=N)N)C(=O)N[C@@H](Cc1c[nH]cn1)C(=O)N[C@@H](CO)C(=O)N[C@@H](Cc1c[nH]c2ccccc12)C(=O)N[C@H](C(=O)N[C@@H](Cc1c[nH]c2ccccc12)C(=O)N[C@@H](CCC(=O)O)C(=O)N[C@@H](CCCCN)C(=O)N[C@@H](CCCCN)C(=O)N[C@@H](CC(C)C)C(=O)N[C@@H](CCC(=O)O)C(=O)N[C@H](C(=O)N[C@@H](C)C(=O)N[C@H](C(=O)N[C@@H](CC(N)=O)C(=O)N[C@@H](CC(C)C)C(=O)N[C@@H](C)C(=O)N[C@@H](Cc1c[nH]c2ccccc12)C(=O)N[C@H](C(=O)N[C@@H](C)C(=O)NCC(=O)N[C@@H](CC(N)=O)C(=O)N[C@@H](CO)C(=O)N[C@@H](CC(N)=O)C(=O)N[C@@H](CCCCN)C(=O)N[C@@H](Cc1c[nH]c2ccccc12)C(=O)N[C@H](C(=O)N[C@@H](Cc1c[nH]c2ccccc12)C(=O)N[C@@H](CCCCN)C(=O)O)[C@@H](C)O)[C@@H](C)O)C(C)C)[C@@H](C)O)[C@@H](C)O [Tf-LP4-trp]
[5]
  IC50: 1.5 to 2 µM
[6]
  IC50: 2.4 to 3 µM

## D77N-mVDAC1: VDAC1 polypeptide variant D77N [Peptide D77N-mVDAC1]
[7]
  protective effect of HK-I over-expression against cell death induced by mVDAC1 over-expression: no protective effect

## E65Q-mVDAC1: VDAC1 polypeptide variant E65Q [Peptide E65Q-mVDAC1]
[7]
  protective effect of HK-I over-expression against cell death induced by mVDAC1 over-expression: no protective effect

## E72Q-mVDAC1: VDAC1 polypeptide variant E72Q [Peptide E72Q-mVDAC1]
[7]
  protective effect of HK-I over-expression against cell death induced by mVDAC1 over-expression: no protective effect

## E72Q-mVDAC-GFP: GFP-tagged E72Q mVDAC1 variant
[8]; protection by RuR (1 μM) against apoptosis of transfected U937 cells
  % of protection: 0%
[8]; transfected U937 cells, without RuR, mean±SEM (n=3)
  Apoptotic cells, % −RuR: 71.9 ± 4.7%
[8]; transfected U937 cells, 56 hr after transfection exposed 20 hr to RuR (1 μM), mean±SEM (n=3)
  Apoptotic cells, % +RuR: 71.6 ± 4.4%

## E202Q-mVDAC1: VDAC1 polypeptide variant E202Q [Peptide E202Q-mVDAC1]
[7]
  protective effect of HK-I over-expression against cell death induced by mVDAC1 over-expression: no protective effect

## G67A-mVDAC1: VDAC1 polypeptide variant G67A [Peptide G67A-mVDAC1]
[7]
  protective effect of HK-I over-expression against cell death induced by mVDAC1 over-expression: dramatically reduced

## K73L-mVDAC1: VDAC1 polypeptide variant K73L [Peptide K73L-mVDAC1]
[7]
  protective effect of HK-I over-expression against cell death induced by mVDAC1 over-expression: no protective effect

## N75A-mVDAC1: VDAC1 polypeptide variant N75A [Peptide N75A-mVDAC1]
[7]
  protective effect of HK-I over-expression against cell death induced by mVDAC1 over-expression: dramatically reduced
